# Key:
# [1] = molecular target: T1, type B (CCK-B) gastrin or cholecystokinin receptors (Oryctolagus cuniculus, UniProt P46627); experiment: Inhibition of the increase in cytosol calcium induced by gastrin in rabbit gastric mucous-membrane cells; format: cell-based; conditions: 5×10-8 gastrin
# T1 construct: rabbit gastric mucous-membrane cells were prepared by conventional techniques; endogenous in cells; host or cells: dispersed rabbit gastric mucous-membrane cells (collagenase and pronase)
# T1 sequence (P46627 1-452): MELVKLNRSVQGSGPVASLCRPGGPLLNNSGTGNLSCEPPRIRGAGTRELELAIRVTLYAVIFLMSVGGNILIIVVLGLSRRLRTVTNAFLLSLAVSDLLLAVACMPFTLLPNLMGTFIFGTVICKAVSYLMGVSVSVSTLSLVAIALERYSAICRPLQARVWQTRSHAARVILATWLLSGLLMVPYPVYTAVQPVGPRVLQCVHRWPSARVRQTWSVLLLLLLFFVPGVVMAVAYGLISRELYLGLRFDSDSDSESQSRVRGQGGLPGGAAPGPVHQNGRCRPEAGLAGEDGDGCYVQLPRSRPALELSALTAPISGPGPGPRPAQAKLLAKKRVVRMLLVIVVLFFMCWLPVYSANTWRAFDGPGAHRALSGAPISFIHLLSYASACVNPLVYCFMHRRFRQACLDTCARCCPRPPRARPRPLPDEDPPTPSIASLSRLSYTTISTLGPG
# From the text: The parietal cells of the gastric mucous membrane are responsible for the secretion of HCl. They have specific membrane receptors which can be activated by gastrin and which have been defined as type B (CCK-B) gastrin or cholecystokinin receptors.
# Since it has been observed that the activation of CCK-B receptors by gastrin leads to an increase in the level of cytosol calcium ions, a technique of measurement of the increase in intracellular calcium induced by gastrin in the presence and in the absence of the compounds of the invention was used as an indication of the anti-gastrin activity of the compounds.
# Suspensions (0.8×10^6 /ml) of rabbit gastric mucous-membrane cells were prepared by conventional techniques with the use of collagenase and pronase as digestive enzymes; the basal [Ca^2+ ]i values, that is, those reached […] stimulation of the cellular system, were estimated in accordance with Grynkiewicz et al [J. Biol. Chem. 260 (1985), 3440]. In the control samples, the cells were stimulated with […], whereas in the samples in which the effect of the compounds of the invention was evaluated, the cells were incubated with these compounds before stimulation with gastrin. The results are expressed as percentage increments of [Ca^2+ ]i with reference to the control value. The anti-gastrin activity of the compounds was expressed as the IC50 value, that is, the concentration (in micromoles/liter) at which the response to the stimulus induced by gastrin was reduced by 50%.
# [2] = molecular target: T2, central CCK-B receptor (Cavia porcellus, UniProt H0VZC5); experiment: Inhibition of the binding of [3H]-[pBC264]CCK-7 to guinea-pig cortex membranes; conditions: for IC50: guinea-pig cortex membranes, 0.2 nM radioligand, read-out: IC50, displacement of [3H][pBC264]CCK-7 from the receptor; for times less active than the corresponding (R) derivative: on average, CCK-B binding
# T2 construct: Cerebral cortexes of male albino guinea pigs were therefore used; from tissue; host or cells: cerebral cortex membranes of male albino guinea pigs
# T2 sequence (H0VZC5 1-426): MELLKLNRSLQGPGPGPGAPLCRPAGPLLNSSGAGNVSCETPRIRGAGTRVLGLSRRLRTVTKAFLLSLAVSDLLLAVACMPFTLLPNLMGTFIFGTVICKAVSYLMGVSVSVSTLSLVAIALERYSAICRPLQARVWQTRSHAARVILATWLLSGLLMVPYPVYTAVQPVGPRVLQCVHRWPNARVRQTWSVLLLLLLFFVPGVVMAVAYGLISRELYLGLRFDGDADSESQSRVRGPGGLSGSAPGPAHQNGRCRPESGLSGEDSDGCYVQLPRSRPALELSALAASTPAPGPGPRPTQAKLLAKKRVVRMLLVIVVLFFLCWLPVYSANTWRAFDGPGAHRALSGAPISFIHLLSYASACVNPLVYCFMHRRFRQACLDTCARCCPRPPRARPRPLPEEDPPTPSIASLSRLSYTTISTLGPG
# From the text: (§1) [3-H][pBC264]CCK-7 was used to evaluate the ability of the compounds of the invention to interact with the central CCK-B receptor. This ligand has been show: to be selective for the CCK-B receptors since it has an affinity for the cortex (CCK-B) receptors 3 logarithmic orders of magnitude greater than for those of the pancreas (CCK-A) in the guinea pig (C. Durieux et al. Eur. J. Pharmacol. 168 (1989 page 269].
# (§2) Cerebral cortexes of male albino guinea pigs were therefore used with the method given above, to obtain a membrane content corresponding to about 300 mcg of proteins/ml incubated with a final concentration of 0.2 nM of radioligand.
# (§3) The results obtained for some of the compounds of the invention are shown in Table 2 in which the IC50, that is, the concentration (in micromoles/liter) of the antagonist which can displace 50% of the [3-H](pBC264]CCK-7 from the receptor, is given.
# [3] = test system: central CCK-B receptor; experiment: as above; conditions: CCK-B binding (Table 2) compared with CCK-A gall bladder activity
# From the text: as §1, §2, §3
# [4] = test system: rat; experiment: Anxiolytic activity, elevated plus-maze in the rat; format: in vivo
# From the text: An important role has in fact recently been postulated for the central CCK-B receptor in anxiety. […] In this experimental model, a compound having anxiolytic activity produces a % increase in the time spent in the open limbs and a % increase in the number of entries to the open limbs.
# The results obtained are shown in Table 4 below, in which the activities obtained with various doses of compound 1 administered by an intraperitoneal route (IP) in comparison with a group of animals treated with physiological solution by the same route.
smiles,measurement,setting,value
Cc1cc(C)c(NC(=O)C[C@@H](CC(=O)O)c2cccc3ccccc23)c(C(=O)N2CCC3(CCCC3)CC2)c1 [Compound 4],"IC50, inhibition of gastrin-induced increase in cytosol calcium",[1],68.8 nM
same,IC50,[2],54.7 nM
same,times less active than the corresponding (R) derivative,[2],~10 times
Cc1cc(Cl)c(NC(=O)C[C@H](CC(=O)O)c2cccc3ccccc23)c(C(=O)N2CCC3(CCCC3)CC2)c1 [Compound 2],"IC50, inhibition of gastrin-induced increase in cytosol calcium",[1],3.5 nM
same,IC50,[2],2.5 nM
Cc1cc(C)c(NC(=O)C[C@H](CC(=O)O)c2cccc3ccccc23)c(C(=O)N2CCC3(CCCC3)CC2)c1 [Compound 1],"IC50, inhibition of gastrin-induced increase in cytosol calcium",[1],4.3 nM
same,IC50,[2],5.1 nM
same,affinity for the gastrin receptor (CCK-B) relative to the cholecystokinin receptor (CCK-A),[3],at least 1000 times
same,% effect Vs controls (entries open limbs/total entries),[4]; 0.03 mg/kg I.P.,32.6%
same,% effect Vs controls (time open limbs/total time),[4]; 0.03 mg/kg I.P.,26.4%
same,Entries open limbs/total entries (%),[4]; 0.03 mg/kg I.P.,42.2%
same,Time open limbs/total time (%),[4]; 0.03 mg/kg I.P.,27.5%
same,% effect Vs controls (entries open limbs/total entries),[4]; 0.3 mg/kg I.P.,31.5%
same,% effect Vs controls (time open limbs/total time),[4]; 0.3 mg/kg I.P.,50.9%
same,% of time spent in the open limbs vs control group (in words),[4]; 0.3 mg/kg I.P.,this increase is significant
same,Entries open limbs/total entries (%),[4]; 0.3 mg/kg I.P.,41.8%
same,Time open limbs/total time (%),"[4]; 0.3 mg/kg I.P., (*) Duncan test p < 0.05 vs control group",32.8%
same,% effect Vs controls (entries open limbs/total entries),[4]; 3.0 mg/kg I.P.,26.3%
same,% effect Vs controls (time open limbs/total time),[4]; 3.0 mg/kg I.P.,38.5%
same,Entries open limbs/total entries (%),[4]; 3.0 mg/kg I.P.,40.2%
same,Time open limbs/total time (%),[4]; 3.0 mg/kg I.P.,30.1%
same,% of entries to the open limbs over total entries vs controls (in words),[4]; dose range 0.03-3 mg/kg I.P.,increases the % of entries to the open limbs
same,anxiolytic activity (in words),"[4]; plus maze, I.P.",shows anxiolytic activity
Cc1cc(Cl)c(NC(=O)C[C@@H](CC(=O)O)c2cccc3ccccc23)c(C(=O)N2CCC3(CCCC3)CC2)c1 [Compound 5],"IC50, inhibition of gastrin-induced increase in cytosol calcium",[1],82 nM
same,IC50,[2],22.9 nM
same,times less active than the corresponding (R) derivative,[2],~10 times
